Source: patent publication US10517889B2, “Modulators of SMAD7 expression” (Ionis Pharmaceuticals, Inc., priority 2017, dated 2019)
Strand notation (5' to 3'): a small letter for the sugar, then the base; units joined by * are phosphorothioate-linked, units joined directly phosphodiester-linked; [ ] holds rarer units or linkages, { } end groups; capitals alone tell only the bases. k = constrained ethyl (cEt); [5mC] = 5-methylcytosine; d = 2'-deoxy (DNA)

Tested on: human SMAD7 mRNA
Assay: Antisense inhibition of human SMAD7 mRNA expression in Hep3B cells by 3-10-3 cEt gapmers, 10,000 nM, electroporation (Example 2)
Format: cell-based
Conditions: approximately 24 hours
Outline: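 Hep3B cells (20,000 per well) were electroporated with 10,000 nM 16-mer 3-10-3 cEt gapmer (phosphorothioate, 5-methylcytosine). After about 24 h, SMAD7 mRNA was quantified by qRT-PCR with primer probe set RTS5062, normalised to RIBOGREEN total RNA, and expressed as percent inhibition versus untreated cells.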

[1] = Hep3B cells, electroporation, 10,000 nM antisense oligonucleotide, RTS5062, relative to untreated control cells
[2] = Hep3B cells, electroporation with 10,000 nM antisense oligonucleotide, SMAD7 mRNA by RT-PCR (RTS5062), relative to untreated control cells
[3] = Hep3B cells, electroporation with 10,000 nM antisense oligonucleotide, primer probe set RTS5062, relative to untreated control cells
[4] = Hep3B cells, electroporation with 10,000 nM antisense oligonucleotide, RTS5062, percent inhibition of SMAD7 mRNA relative to untreated control cells
[5] = SMAD7 mRNA, Hep3B cells, electroporation with 10,000 nM antisense oligonucleotide, primer probe set RTS5062, relative to untreated control cells
[6] = Hep3B cells, 10,000 nM antisense oligonucleotide, electroporation, RT-PCR primer probe set RTS5062, relative to untreated control cells
[7] = SMAD7 mRNA, Hep3B cells, 10,000 nM antisense oligonucleotide, electroporation, primer probe set RTS5062, relative to untreated control cells

Which “% inhibition of SMAD7 mRNA expression” value [1] does the source give for “799639 (k[5mC]*k[5mC]*kA*dG*dA*dG*dA*dG*dT*d[5mC]*dA*dG*dG*k[5mC]*kA*k[5mC]; antisense) [compound 799639]” here?
The value was 34%.

With “799906 (antisense k[5mC]*kA*kT*dG*d[5mC]*dA*dG*dT*d[5mC]*dG*dA*dA*dT*k[5mC]*kA*kT) [compound 799906]” as the substance, how does the “% Inhibition” value [2] read?
The value was 11%.

With “799091 (antisense kA*k[5mC]*kT*dG*dG*dG*dT*dG*dA*dG*d[5mC]*dA*dA*kT*kA*k[5mC]) [compound 799091]” as the substance, how does the “% inhibition of SMAD7 mRNA expression” value [3] read?
Its value is 42%.

“799316 (antisense kA*kA*kA*d[5mC]*dA*d[5mC]*d[5mC]*dA*dA*dG*dA*dT*d[5mC]*k[5mC]*kA*kT) [compound 799316]” was tested. Which “% Inhibition” value [4] did it give?
The value was 0%.

Which “% Inhibition” value [4] does the source give for “799726 (antisense kG*kT*kA*dT*d[5mC]*d[5mC]*dT*dT*dT*d[5mC]*dA*d[5mC]*dG*kA*kG*kG) [compound 799726]” here?
Its value is 49%.

For “829965 (k[5mC]*kT*k[5mC]*dA*d[5mC]*d[5mC]*dT*dA*dG*dT*dT*d[5mC]*dG*k[5mC]*kA*kG; antisense) [compound 829965]”, which “% Inhibition” value [5] is on record?
Its value is 0%.

“799313 (antisense kA*kT*k[5mC]*d[5mC]*dA*dT*d[5mC]*dT*dT*dT*dA*dA*dG*k[5mC]*kA*k[5mC]) [compound 799313]” was tested. Which “% Inhibition” value [4] did it give?
Its value is 0%.

Which “% Inhibition” value [5] does the source give for “829801 (kA*kG*kT*d[5mC]*dG*dG*d[5mC]*dT*dA*dA*dG*dG*dT*kG*kA*kT; antisense) [compound 829801]” here?
The value was 8%.

For “799510 (antisense kG*kA*kG*dA*dA*dA*d[5mC]*dA*dG*dT*d[5mC]*dT*d[5mC]*k[5mC]*kA*k[5mC]) [compound 799510]”, which “% Inhibition” value [2] is on record?
Its value is 57%.

Which “% Inhibition” value [3] does the source give for “799220 (kA*kA*kT*dT*dT*dG*dG*d[5mC]*dA*dT*dT*dT*dG*kT*kT*kA; antisense) [compound 799220]” here?
Its value is 0%.

Which “% Inhibition” value [6] does the source give for “798894 (kA*kG*k[5mC]*dA*d[5mC]*dT*dG*dG*d[5mC]*d[5mC]*d[5mC]*d[5mC]*dA*kG*k[5mC]*k[5mC]; antisense) [compound 798894]” here?
The value was 55%.

How did the “% Inhibition” value [5] turn out when “829861 (antisense k[5mC]*k[5mC]*kA*dT*d[5mC]*d[5mC]*dA*d[5mC]*d[5mC]*dT*d[5mC]*d[5mC]*d[5mC]*kG*k[5mC]*kG) [compound 829861]” was run?
The value was 35%.

With “799200 (antisense kT*k[5mC]*kA*dG*dG*dA*dG*dT*d[5mC]*d[5mC]*dT*dT*dT*k[5mC]*kT*k[5mC]) [compound 799200]” as the substance, how does the “% inhibition of SMAD7 mRNA expression” value [3] read?
Its value is 69%.

How did the “% Inhibition” value [6] turn out when “800036 (kG*kT*kT*dA*dG*dG*dA*d[5mC]*dA*dG*d[5mC]*dT*d[5mC]*k[5mC]*kA*kG; antisense) [compound 800036]” was run?
The value was 38%.

How did the “% inhibition of SMAD7 mRNA expression” value [3] turn out when “799251 (antisense kA*kG*kG*dT*dG*d[5mC]*dG*d[5mC]*dG*dG*d[5mC]*d[5mC]*dA*k[5mC]*kG*kA) [compound 799251]” was run?
The value was 37%.

For “829992 (kG*k[5mC]*kA*dG*dG*dG*d[5mC]*d[5mC]*dG*d[5mC]*dG*dA*dG*kG*k[5mC]*kG; antisense) [compound 829992]”, which “% Inhibition” value [5] is on record?
Its value is 10%.

Which “% Inhibition” value [4] does the source give for “799646 (antisense k[5mC]*kA*kG*dA*dA*dA*d[5mC]*dT*d[5mC]*d[5mC]*dA*dG*dA*kT*kG*kG) [compound 799646]” here?
The value was 18%.

With “799387 (antisense k[5mC]*k[5mC]*kA*dG*dG*dA*dG*d[5mC]*dT*dA*dA*dA*dT*kG*kG*kT) [compound 799387]” as the substance, how does the “% Inhibition” value [2] read?
The value was 22%.

For “829735 (antisense k[5mC]*k[5mC]*kT*d[5mC]*d[5mC]*dG*d[5mC]*dA*d[5mC]*dA*d[5mC]*d[5mC]*dA*kT*kG*kA) [compound 829735]”, which “% Inhibition” value [7] is on record?
Its value is 61%.

“829905 (antisense k[5mC]*kG*kG*d[5mC]*dT*dG*dT*dT*dG*dA*dA*dG*dA*kT*kG*kA) [compound 829905]” was tested. Which “% Inhibition” value [5] did it give?
Its value is 20%.

For “799337 (kG*kT*k[5mC]*dT*dT*dT*d[5mC]*d[5mC]*dG*dG*dG*dT*dG*k[5mC]*kG*kG; antisense) [compound 799337]”, which “% Inhibition” value [2] is on record?
Its value is 30%.

“799044 (k[5mC]*kA*kG*dA*dG*d[5mC]*d[5mC]*dG*dT*dG*d[5mC]*dT*d[5mC]*k[5mC]*kT*kG; antisense) [compound 799044]” was tested. Which “% inhibition of SMAD7 mRNA expression” value [3] did it give?
Its value is 0%.

“799578 (kA*k[5mC]*k[5mC]*dT*dT*d[5mC]*d[5mC]*dG*dA*dA*dA*dG*dG*kA*k[5mC]*k[5mC]; antisense) [compound 799578]” was tested. Which “% inhibition of SMAD7 mRNA expression” value [1] did it give?
Its value is 76%.

“800054 (antisense kG*k[5mC]*kT*dA*d[5mC]*dA*d[5mC]*d[5mC]*dA*dA*dA*dG*dA*k[5mC]*k[5mC]*kT) [compound 800054]” was tested. Which “% Inhibition” value [6] did it give?
The value was 62%.

With “829789 (kA*k[5mC]*kT*dT*d[5mC]*d[5mC]*dG*dA*dG*dG*dA*dA*dT*kG*k[5mC]*k[5mC]; antisense) [compound 829789]” as the substance, how does the “% Inhibition” value [7] read?
Its value is 42%.

With “798690 (antisense kG*kG*k[5mC]*dT*d[5mC]*d[5mC]*dT*d[5mC]*d[5mC]*dA*dG*dA*dG*kA*k[5mC]*kG) [compound 798690]” as the substance, how does the “% inhibition of SMAD7 mRNA expression” value [3] read?
Its value is 29%.

How did the “% inhibition of SMAD7 mRNA expression” value [1] turn out when “799797 (kG*kA*k[5mC]*dA*dT*dT*dA*dG*dA*dT*dA*d[5mC]*dT*kG*kT*k[5mC]; antisense) [compound 799797]” was run?
The value was 27%.

How did the “% inhibition of SMAD7 mRNA expression” value [3] turn out when “799264 (antisense k[5mC]*k[5mC]*kA*dT*d[5mC]*d[5mC]*dA*dA*d[5mC]*dT*d[5mC]*dT*d[5mC]*kT*kT*kT) [compound 799264]” was run?
Its value is 16%.

“799107 (antisense k[5mC]*kT*kG*dG*dT*dT*dT*dT*d[5mC]*dT*dA*dA*dG*kT*k[5mC]*k[5mC]) [compound 799107]” was tested. Which “% inhibition of SMAD7 mRNA expression” value [3] did it give?
Its value is 51%.

For “772711 (kA*kA*kA*d[5mC]*dA*d[5mC]*d[5mC]*dA*dA*dT*d[5mC]*dT*dT*kG*kT*kG; antisense) [compound 772711]”, which “% Inhibition” value [7] is on record?
The value was 0%.

How did the “% inhibition of SMAD7 mRNA expression” value [1] turn out when “799771 (kG*k[5mC]*kA*dT*dA*dT*dG*d[5mC]*d[5mC]*dA*d[5mC]*dT*dG*kA*kG*kA; antisense) [compound 799771]” was run?
Its value is 0%.

How did the “% inhibition of SMAD7 mRNA expression” value [3] turn out when “799006 (k[5mC]*kG*k[5mC]*dT*d[5mC]*d[5mC]*dT*dG*d[5mC]*dA*d[5mC]*dA*d[5mC]*kG*k[5mC]*kG; antisense) [compound 799006]” was run?
Its value is 0%.

For “799154 (antisense kA*kG*kA*dG*dT*dT*dA*dG*dG*dT*dG*dT*d[5mC]*kA*kG*k[5mC]) [compound 799154]”, which “% Inhibition” value [3] is on record?
The value was 39%.

How did the “% inhibition of SMAD7 mRNA expression” value [3] turn out when “799425 (antisense kA*kT*kT*dA*dT*dA*dG*d[5mC]*dA*dA*dA*dA*dT*kG*kG*kA) [compound 799425]” was run?
Its value is 23%.

Which “% Inhibition” value [2] does the source give for “799983 (k[5mC]*kA*kT*d[5mC]*dA*d[5mC]*d[5mC]*dA*d[5mC]*dG*d[5mC]*d[5mC]*dT*k[5mC]*kG*k[5mC]; antisense) [compound 799983]” here?
The value was 15%.

For “799161 (antisense k[5mC]*kA*kT*dA*d[5mC]*dG*dA*dG*dT*dG*dT*dA*dT*kG*kA*kG) [compound 799161]”, which “% Inhibition” value [3] is on record?
Its value is 29%.
